Source: the Bradley open melting point set (2014)
Where “and” joins values, the source holds several entries; their conditions need not be identical. Identical values can stand only once.

| melting point | Structure (SMILES) |
| --- | --- |
| 182 °C | CC(=O)NS(=O)(=O)c1ccc(N)cc1 [N-[(4-Aminophenyl)sulfonyl]acetamide] |
| 53 °C | CN1CCN(CCCN2c3ccccc3Sc3ccccc32)CC1 [perazine] |
| 135 °C | O=C(OC[C@H]1O[C@](O)(COC(=O)c2cccnc2)[C@@H](OC(=O)c2cccnc2)[C@@H]1OC(=O)c1cccnc1)c1cccnc1 [nicofuranose] |
| 235 °C | Cc1ccnc(NS(=O)(=O)c2ccc(N)cc2)n1 [Sulfamerazine] |
| 228 °C | NS(=O)(=O)c1cc2c(cc1Cl)NC(C1CC3C=CC1C3)NS2(=O)=O (stereo unspecified) [Cyclothiazide] |
| -14 °C | CCCCCCCCCCc1ccccc1 [decylbenzene] |
| 134 °C | CCOc1ccc(NC(C)=O)cc1 [N-(4-Ethoxyphenyl)acetamide] |
| 58 °C | CCCCOC(=O)c1ccc(N)cc1 [butyl 4-aminobenzoate] |
| -63 °C | C1CCNC1 [pyrrolidine] |
| 220 °C | c1ccc(-c2ccnc3c2ccc2c(-c4ccccc4)ccnc23)cc1 [bathophenanthroline] |
| -9 °C | CCCCCCC(=O)O [Heptanoic acid] |
| 169 °C | O=C(O)C(O)[C@H](O)C(=O)O (stereo in doubt) [D-tartaric acid] |
| -70 °C | CCCCOB(OCCCC)OCCCC [Tributyl borate] |
| 149 °C | CNC(=O)c1cc([N+](=O)[O-])cc([N+](=O)[O-])c1 [benzamide, N-methyl-3,5-dinitro-] |
| 36.7 °C | CCCCCCCCCCCCCCCCCCCC [Icosane] |
| 119 °C | CCCC(=O)Nc1ccc(OCC(O)CNC(C)C)c(C(C)=O)c1 (stereo unspecified) [acebutolol] |
| -40 °C | O=S(=O)(O)C(F)(F)F [trifluoromethanesulfonic acid] |
| 245 °C | NC(=O)C1c2ccccc2Oc2ccccc21 [xanthene-9-carboxamide] |
| 124 °C | CC(C)(C)NCC(O)COc1cccc2c1CC(O)C(O)C2 (stereo unspecified) [nadolol] |
| 159 °C | Cc1cccc(C)c1NC(=O)CN1CCN(CCCC(c2ccc(F)cc2)c2ccc(F)cc2)CC1 [lidoflazine] |
| 170 °C | COc1nccnc1NS(=O)(=O)c1ccc(N)cc1 [Sulfametopyrazine] |
| 44 °C | CC(C)(O)C(C)(C)O [pinacol, anhydrous] |
| 238 °C | Clc1ccc(-c2nc3c4ccccc4ccn3n2)cc1 [lotrifen] |
| 132 °C | CO[C@@H]1[C@@H](O[C@@H]2O[C@H](C)[C@@H](O[C@H]3C[C@@](C)(O)[C@@H](OC(=O)CC(C)C)[C@H](C)O3)[C@H](N(C)C)[C@H]2O)[C@@H](CC=O)C[C@@H](C)[C@@H](O)C=CC=CC[C@@H](C)OC(=O)C[C@H]1OC(C)=O [Josamycin] |
| 67 °C | CCOC(=O)c1ccc2c(c1)no[n+]2[O-] [ethyl benzofuroxan-5-carboxylate] |
| 53.5 °C | CCOC(=O)NCCOc1ccc(Oc2ccccc2)cc1 [fenoxycarb] |
| 167 °C | OB(O)c1ccsc1 [thiophene-3-boronic acid] |
| -39 °C | CCCCCCCCN(CCCCCCCC)CCCCCCCC [tri-n-octylamine] |
| 112 °C | O[C@@H]1[C@H](O)[C@@H](O)OC[C@H]1O [D-lyxose] |
| 240 °C | CCn1cc(C(=O)O)c(=O)c2cc(F)c(N3CCNC(C)C3)c(F)c21 (stereo unspecified) [lomefloxacin] |

Second part, the compound before the results:

| Structure (SMILES) | melting point |
| --- | --- |
| NC(=O)c1ccc(Cl)cc1 [4-chlorobenzamide] | 178 °C |
| OB(O)c1cc(C(F)(F)F)cc(C(F)(F)F)c1 [3,5-bis(trifluoromethyl)benzeneboronic acid] | 222 °C |
| CCOC(=O)/C(C#N)=C/c1ccc(-c2ccccc2Br)o1 | 124 °C |
| O=[N+]([O-])c1ccc(CS(=O)(=O)Cl)cc1 [4-nitro-alpha-toluenesulfonyl chloride] | 92 °C |
| NC(=O)N1c2ccccc2C=Cc2ccccc21 [Carbamazepine] | 190 °C |
| Cc1ccc(C)c(/C=C/c2ccc(-c3ccc(/C=C/c4cc(C)ccc4C)cc3)cc2)c1 [4,4'-bis(2,5-dimethylstyryl)biphenyl] | 198 °C |
| Cc1ccc(-c2ccc(C)cc2)cc1 [4,4'-dimethylbiphenyl] | 121 °C |
| Cc1ccc([N+](=O)[O-])cc1N [2-Methyl-5-nitroaniline] | 108 °C |
| [O-][n+]1onc2cc(Cl)ccc21 [5-chlorobenzofuroxan] | 47 °C |
| O=C1CCC(N2C(=O)c3ccccc3C2=O)C(=O)N1 (stereo unspecified) [2-(2,6-Dioxopiperidin-3-yl)-1H-isoindole-1,3(2H)-dione] | 270 °C |
| C=CCCCCCCCCCCCCCCCCCC [1-eicosene] | 29 °C |
| Nc1nc(O)nc2c1cnn2CCO [4-amino-1-(2-hydroxyethyl)-1H-pyrazolo[3,4-d]pyrimidin-6-ol] | 308 °C |
| CCCCOC(=O)c1ccccc1C(=O)OCCCC [di-n-butyl phthalate] | -35 °C |
| COc1ccccc1OC [o-dimethoxybenzene] | 15 °C |
| OB(O)c1ccc(OCc2ccccc2)nc1 [6-benzyloxypyridine-3-boronic acid] | 109 °C |
| Oc1ccc(Cl)cc1Cc1cc(Cl)ccc1O [2,2'-Methylenebis(4-chlorophenol)] | 170 °C |
| CC(=O)Nc1ccc(Cl)cc1C [4'-chloro-2'-methylacetanilide] | 140 °C |
| O=Cc1ccc(Cl)cc1Cl [2,4-dichlorobenzaldehyde] | 73 °C |
| O=C(O)c1cc(Cl)cc([N+](=O)[O-])c1Cl [2,5-dichloro-3-nitrobenzoic acid] | 220 °C |
| Cc1cccc(C)c1 [m-xylene] | -47 °C |
| CC(=O)CC(C)(C)O [4-Hydroxy-4-methylpentan-2-one] | -50 °C |
| Cc1cc(C)cc(-c2cc(C)cc(C)c2)c1 [3,3',5,5'-tetramethylbiphenyl] | 48 °C |

| Structure (SMILES) | melting point |
| --- | --- |
| CC(=O)/C=C/c1ccccc1 [trans-4-phenyl-3-buten-2-one] | 41 °C |
| CC1(C)[C@@H](C(=O)O)CC[C@@]1(C)C(=O)O [(1R,3S)-camphoric acid] | 186 °C |
| O=C(O)CCSc1ccc2ccccc2c1 [3-(2-naphthylthio)propionic acid] | 105 °C |
| c1ccc(C/C(=N\Nc2ccccc2)c2ccc3ccccc3c2)cc1 | 166 °C |
| CNC(=O)Oc1ccccc1OC(C)C [propoxur] | 91.5 °C |
| c1ccc2c(c1)ccc1cc3c(ccc4ccccc43)cc12 [1,2,5,6-Dibenzanthracene dibenz[a,h]anthracene] | 266 °C |
| Cc1nc(-c2ccc(-c3nc(C)c(-c4ccccc4)o3)cc2)oc1-c1ccccc1 [1,4-bis(4-methyl-5-phenyloxazol-2-yl)benzene] | 234 °C |
| c1ccc(-c2csc(-c3cccnc3)n2)cc1 [4-phenyl-2-(3-pyridyl)thiazole] | 54 °C |
| N#CCC(=O)c1ccccc1Cl [2-chlorobenzoylacetonitrile] | 56 °C |
| CC(=O)Oc1ccc([N+](=O)[O-])cc1 [4-Nitrophenyl acetate] | 78 °C |
| O=C(O)c1ccc(O)c([N+](=O)[O-])c1 [4-hydroxy-3-nitrobenzoic acid] | 183 °C |
| FC(F)(F)c1cccc(Cl)n1 [2-chloro-6-(trifluoromethyl)pyridine] | 29 °C |
| N#CCc1ccc(Br)cc1 [p-bromophenylacetonitrile] | 48 °C |
| COc1cc(OC)c(OC)cc1C=O [2,4,5-trimethoxybenzaldehyde] | 114 °C |
| CC(=O)CC(C)=O [2,4-pentanedione] | -23 °C |
| OCCN1CCOCC1 [4-(2-hydroxyethyl)morpholine] | 2 °C |
| CCNc1nc(Cl)nc(NCC)n1 [2-chloro-4,6-bis(ethylamino)-1,3,5-triazine] | 228 °C |
| CC(=O)CC(C)C [4-methyl-2-pentanone] | -84 °C |
| CCCCc1ccc(/N=N/c2ccc(OCCC)cc2)cc1 [(E)-1-(4-butylphenyl)-2-(4-propoxyphenyl)diazene] | 67 °C |
| CON(/C=C1\C(=O)C2(C)CCC1C2(C)C)c1ccccc1 (stereo unspecified) | 76 °C |
| O/N=C/C1=C(/C=C/c2ccccc2)CCC1 | 163 °C |
| Cc1ccc(C)c(O)c1 [2,5-dimethylphenol] | 74.8 °C and 76 °C |

| Structure (SMILES) | melting point |
| --- | --- |
| Nc1ccc(N)cc1 [p-phenylenediamine] | 140 °C |
| Cc1ccc([N+](=O)[O-])cc1C [4-nitro-1,2-dimethylbenzene] | 31 °C |
| COc1ccc2[nH]c(C)cc2c1 [5-methoxy-2-methylindole] | 87 °C |
| Cc1nc(N)ccc1C#N [6-amino-3-cyano-2-methylpyridine] | 165 °C |
| CC(C)C(O)C(C)(C)C (stereo unspecified) [2,2,4-trimethyl-3-pentanol] | -11 °C |
| CO/C(C)=C(\C#N)c1ccccc1[N+](=O)[O-] [(2Z)-3-methoxy-2-(2-nitrophenyl)but-2-enenitrile] | 68 °C |
| C=C(C)CC(C)(C)C [2,4,4-Trimethylpent-1-ene] | -94 °C |
| Cc1ccc2c(c1)no[n+]2[O-] [5-Methylbenzofurazan oxide] | 96 °C |
| c1ccncc1 [pyridine] | -42 °C |
| ClC1=C(Cl)C2(Cl)C3C4CC(C5OC45)C3C1(Cl)C2(Cl)Cl (stereo unspecified) [Endrin] | 210 °C |
| Clc1ccc(C(c2ccc(Cl)cc2)C(Cl)(Cl)Cl)cc1 [4,4'-DDT] | 110 °C |
| COc1ccc(Br)c(OC)c1 [1-bromo-2,4-dimethoxybenzene] | 26 °C |
| CCNCC [diethylamine] | -50 °C |
| COc1cccc(OC)c1C [2,6-dimethoxytoluene] | 40 °C |
| Clc1cc(Cl)c(Cl)cc1Cl [1,2,4,5-Tetrachlorobenzene] | 139 °C |
| CC(=O)Cl [acetyl chloride] | -112 °C |
| COc1ccc(CC#N)cc1OC [3,4-dimethoxyphenylacetonitrile] | 64 °C |
| CC(C)Cl [2-chloropropane] | -117 °C |
| OCCCCO [Butane-1,4-diol] | 18 °C |
| CC1(C)[C@@H]2CC[C@@]1(C)C(=O)C2 [(1R)-camphor] | 178 °C |
| CCC(=O)c1ccccc1 [propiophenone] | 19 °C |
| C1CCC(C2CCCCC2)CC1 [1,1'-Bi(cyclohexyl)] | 4 °C |
